{"source": "patent US11000033B2", "about": "“Ketone or oxime compound, and herbicide” (NISSAN CHEMICAL CORPORATION, priority 2014, dated 2021)", "format_in_all_cases": "in vivo", "key": {"[1]": {"system": "transplanted rice plant", "assay": "Test Example 1: effect on crop, application before weed generation in submerged conditions (symbol a)", "settings": "application herbicide amount 320 g/ha", "in_short": "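Rice at 2.5 leaf stage transplanted into submerged soil (4 cm depth) sown with three weed species; herbicide applied before weed emergence.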"}, "[2]": {"system": "wheat", "assay": "Test Example 5: effect on crop by foliage application, plastic box (symbol e)", "settings": "320 g/ha, 3 weeks after application", "in_short": "(§1)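 Plants were raised from seed in a greenhouse (25° C. to 30° C.) after sowing in a plastic box of sterilized diluvial soil.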"}, "[3]": {"system": "Monochoria vaginalis", "assay": "Test Example 2: herbicidal activity, application during weed generation in submerged conditions (symbol C)", "settings": "Table 23; application herbicide amount 320 g/ha; grade 0-5 by criteria of Test Example 1", "in_short": "(§2)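 Treatment timing was the one- to two-leaf stage, with diluted emulsifiable compound dropped onto the paddy water (depth 4 cm) over alluvial soil. All three species grew from a mixed sowing in a 25° C. to 30° C. greenhouse. Injury was judged by eye 3 weeks on.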"}, "[4]": {"system": "Lolium multiflorum Lam.", "assay": "Test Example 5: herbicidal effect by foliage application, plastic box (symbol K)", "settings": "320 g/ha, 3 weeks after application", "in_short": "(§3)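 Herbicide, formulated as an emulsion and diluted in water, is sprayed onto the aerial parts of 14-day seedlings. These were grown at 25° C. to 30° C. in sterilized diluvial soil; effects are graded after 3 weeks.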"}, "[5]": {"system": "Echinochloa oryzacola Vasing.", "assay": "Test Example 2: herbicidal activity, application during weed generation in submerged conditions (symbol A)", "settings": "Table 23; application herbicide amount 320 g/ha; grade 0-5 by criteria of Test Example 1", "in_short": "as §2"}, "[6]": {"system": "Chenopodium album", "assay": "Test Example 5: herbicidal effect by foliage application, plastic box (symbol O)", "settings": "320 g/ha, 3 weeks after application", "in_short": "as §3"}, "[7]": {"system": "Amaranthus retroflexus", "assay": "Test Example 5: herbicidal effect by foliage application, plastic box (symbol N)", "settings": "320 g/ha, 3 weeks after application", "in_short": "as §3"}, "[8]": {"system": "rice plant", "assay": "Test Example 5: effect on crop by foliage application, plastic box (symbol b)", "settings": "320 g/ha, 3 weeks after application", "in_short": "as §1"}, "[9]": {"system": "Scirpus juncoides", "assay": "Test Example 1: herbicidal activity, application before weed generation in submerged conditions (symbol B)", "settings": "application herbicide amount 320 g/ha", "in_short": "(§4)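 Steps: alluvial soil flooded to 4 cm; weed seeds sown together; rice seedlings (2.5 leaf) transplanted; diluted emulsion applied to water surface the same day as sowing; plants grown at 25–30 °C in greenhouse; herbicidal effect rated on a 0–5 scale at 3 weeks.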"}, "[10]": {"system": "corn", "assay": "Test Example 5: effect on crop by foliage application, plastic box (symbol c)", "settings": "320 g/ha, 3 weeks after application", "in_short": "as §1"}, "[11]": {"system": "Echinochloa crus-galli var. crus-galli", "assay": "Test Example 5: herbicidal effect by foliage application, plastic box (symbol H)", "settings": "320 g/ha, 3 weeks after application", "in_short": "as §3"}, "[12]": {"system": "Monochoria vaginalis", "assay": "Test Example 1: herbicidal activity, application before weed generation in submerged conditions (symbol C)", "settings": "application herbicide amount 320 g/ha", "in_short": "as §4"}, "[13]": {"system": "Avena fatua", "assay": "Test Example 5: herbicidal effect by foliage application, plastic box (symbol I)", "settings": "320 g/ha, 3 weeks after application", "in_short": "as §3"}, "[14]": {"system": "Stellaria media", "assay": "Test Example 5: herbicidal effect by foliage application, plastic box (symbol P)", "settings": "320 g/ha, 3 weeks after application", "in_short": "as §3"}, "[15]": {"system": "Abutilon theophrasti", "assay": "Test Example 5: herbicidal effect by foliage application, plastic box (symbol M)", "settings": "320 g/ha, 3 weeks after application", "in_short": "as §3"}, "[16]": {"system": "Cyperus difformis", "assay": "Test Example 3: herbicidal effect by foliage application, Wagner pot (symbol E)", "settings": "application herbicide amount 320 g/ha, Table 24", "in_short": "(§5)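 The compound, formulated as an emulsion and diluted with water to a predetermined rate, is applied uniformly to leaves of two-week-old seedlings growing in submerged alluvial soil at 25–30 °C. Rice is included. Each plant is assessed 3 weeks later using defined criteria.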"}, "[17]": {"system": "Echinochloa crus-galli var. crus-galli", "assay": "Test Example 3: herbicidal effect by foliage application, Wagner pot (symbol H)", "settings": "application herbicide amount 320 g/ha, Table 24", "in_short": "as §5"}, "[18]": {"system": "Alopecurus myosuroides", "assay": "Test Example 5: herbicidal effect by foliage application, plastic box (symbol J)", "settings": "320 g/ha, 3 weeks after application", "in_short": "as §3"}, "[19]": {"system": "Echinochloa oryzacola Vasing.", "assay": "Test Example 1: herbicidal activity, application before weed generation in submerged conditions (symbol A)", "settings": "application herbicide amount 320 g/ha", "in_short": "as §4"}, "[20]": {"system": "Scirpus juncoides", "assay": "Test Example 2: herbicidal activity, application during weed generation in submerged conditions (symbol B)", "settings": "Table 23; application herbicide amount 320 g/ha; grade 0-5 by criteria of Test Example 1", "in_short": "as §2"}, "[21]": {"system": "Galium spurium", "assay": "Test Example 5: herbicidal effect by foliage application, plastic box (symbol Q)", "settings": "320 g/ha, 3 weeks after application", "in_short": "as §3"}, "[22]": {"system": "beet", "assay": "Test Example 5: effect on crop by foliage application, plastic box (symbol f)", "settings": "320 g/ha, 3 weeks after application", "in_short": "as §1"}, "[23]": {"system": "Veronica persica", "assay": "Test Example 5: herbicidal effect by foliage application, plastic box (symbol R)", "settings": "320 g/ha, 3 weeks after application", "in_short": "as §3"}, "[24]": {"system": "Apera spica-venti", "assay": "Test Example 5: herbicidal effect by foliage application, plastic box (symbol L)", "settings": "320 g/ha, 3 weeks after application", "in_short": "as §3"}, "[25]": {"system": "Leptochloa chinensis", "assay": "Test Example 3: herbicidal effect by foliage application, Wagner pot (symbol D)", "settings": "application herbicide amount 320 g/ha, Table 24", "in_short": "as §5"}, "[26]": {"system": "Setaria viridis", "assay": "Test Example 5: herbicidal effect by foliage application, plastic box (symbol G)", "settings": "320 g/ha, 3 weeks after application", "in_short": "as §3"}, "[27]": {"system": "rapeseed", "assay": "Test Example 5: effect on crop by foliage application, plastic box (symbol g)", "settings": "320 g/ha, 3 weeks after application", "in_short": "as §1"}, "[28]": {"system": "soybean", "assay": "Test Example 5: effect on crop by foliage application, plastic box (symbol d)", "settings": "320 g/ha, 3 weeks after application", "in_short": "as §1"}, "[29]": {"system": "Digitaria ciliaris", "assay": "Test Example 5: herbicidal effect by foliage application, plastic box (symbol F)", "settings": "320 g/ha, 3 weeks after application", "in_short": "as §3"}, "[30]": {"system": "directly sowed rice plant", "assay": "Test Example 3: effect on crop by foliage application, Wagner pot (symbol b)", "settings": "application herbicide amount 320 g/ha, Table 24", "in_short": "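Greenhouse culture at 25–30 °C of seeded rice, Cyperus difformis, Leptochloa chinensis and Echinochloa crus-galli var. crus-galli, in alluvial soil held under 0.1–0.5 cm of water in a Wagner pot.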"}}, "data": [{"smiles": "COCCON=C(CC1CC(O)=C(c2c(C)cc(Br)cc2C)C1=O)C(C)C", "note": "(stereo not drawn) [9-018]", "values": [{"measurement": "a (transplanted rice plant) effect on crop grade", "setting": "[1]", "value": "2 (Herbicidal ratio of 20% or higher and lower than 40%)"}, {"measurement": "e: wheat, effect on crop grade", "setting": "[2]", "value": "0 (Herbicidal ratio of 5% or lower (almost no effect))"}, {"measurement": "Herbicidal effect grade, C: Monochoria vaginalis", "setting": "[3]", "value": "0 (Herbicidal ratio of 5% or lower (almost no effect))"}, {"measurement": "K: Lolium multiflorum Lam., herbicidal effect grade", "setting": "[4]", "value": "1 (Herbicidal ratio of 5% or higher and lower than 20%)"}, {"measurement": "Herbicidal effect grade, A: Echinochloa oryzacola Vasing.", "setting": "[5]", "value": "1 (Herbicidal ratio of 5% or higher and lower than 20%)"}, {"measurement": "O: Chenopodium album, herbicidal effect grade", "setting": "[6]", "value": "0 (Herbicidal ratio of 5% or lower (almost no effect))"}, {"measurement": "N: Amaranthus retroflexus, herbicidal effect grade", "setting": "[7]", "value": "0 (Herbicidal ratio of 5% or lower (almost no effect))"}, {"measurement": "b: directly sowed rice plant, effect on crop grade", "setting": "[8]", "value": "3 (Herbicidal ratio of 40% or higher and lower than 70%)"}, {"measurement": "B (Scirpus juncoides) herbicidal effect grade", "setting": "[9]", "value": "0 (Herbicidal ratio of 5% or lower (almost no effect))"}, {"measurement": "c: corn, effect on crop grade", "setting": "[10]", "value": "3 (Herbicidal ratio of 40% or higher and lower than 70%)"}, {"measurement": "H: Echinochloa crus-galli var. crus-galli, herbicidal effect grade", "setting": "[11]", "value": "3 (Herbicidal ratio of 40% or higher and lower than 70%)"}, {"measurement": "C (Monochoria vaginalis) herbicidal effect grade", "setting": "[12]", "value": "0 (Herbicidal ratio of 5% or lower (almost no effect))"}, {"measurement": "I: Avena fatua, herbicidal effect grade", "setting": "[13]", "value": "3 (Herbicidal ratio of 40% or higher and lower than 70%)"}, {"measurement": "P: Stellaria media, herbicidal effect grade", "setting": "[14]", "value": "1 (Herbicidal ratio of 5% or higher and lower than 20%)"}, {"measurement": "M: Abutilon theophrasti, herbicidal effect grade", "setting": "[15]", "value": "0 (Herbicidal ratio of 5% or lower (almost no effect))"}, {"measurement": "E herbicidal effect grade", "setting": "[16]", "value": "0 (Herbicidal ratio of 5% or lower (almost no effect))"}, {"measurement": "H (Echinochloa crus-galli var. crus-galli) herbicidal effect grade", "setting": "[17]", "value": "2 (Herbicidal ratio of 20% or higher and lower than 40%)"}, {"measurement": "J: Alopecurus myosuroides, herbicidal effect grade", "setting": "[18]", "value": "1 (Herbicidal ratio of 5% or higher and lower than 20%)"}, {"measurement": "A (Echinochloa oryzacola Vasing.) herbicidal effect grade", "setting": "[19]", "value": "1 (Herbicidal ratio of 5% or higher and lower than 20%)"}, {"measurement": "Herbicidal effect grade, B: Scirpus juncoides", "setting": "[20]", "value": "0 (Herbicidal ratio of 5% or lower (almost no effect))"}, {"measurement": "Q: Galium spurium, herbicidal effect grade", "setting": "[21]", "value": "0 (Herbicidal ratio of 5% or lower (almost no effect))"}, {"measurement": "f: beet, effect on crop grade", "setting": "[22]", "value": "0 (Herbicidal ratio of 5% or lower (almost no effect))"}, {"measurement": "R: Veronica persica, herbicidal effect grade", "setting": "[23]", "value": "0 (Herbicidal ratio of 5% or lower (almost no effect))"}, {"measurement": "L: Apera spica-venti, herbicidal effect grade", "setting": "[24]", "value": "0 (Herbicidal ratio of 5% or lower (almost no effect))"}, {"measurement": "D (Leptochloa chinensis) herbicidal effect grade", "setting": "[25]", "value": "0 (Herbicidal ratio of 5% or lower (almost no effect))"}, {"measurement": "G: Setaria viridis, herbicidal effect grade", "setting": "[26]", "value": "3 (Herbicidal ratio of 40% or higher and lower than 70%)"}, {"measurement": "g: rapeseed, effect on crop grade", "setting": "[27]", "value": "0 (Herbicidal ratio of 5% or lower (almost no effect))"}, {"measurement": "d: soybean, effect on crop grade", "setting": "[28]", "value": "0 (Herbicidal ratio of 5% or lower (almost no effect))"}, {"measurement": "F: Digitaria ciliaris, herbicidal effect grade", "setting": "[29]", "value": "0 (Herbicidal ratio of 5% or lower (almost no effect))"}, {"measurement": "b (directly sowed rice plant) effect on crop grade", "setting": "[30]", "value": "4 (Herbicidal ratio of 70% or higher and lower than 90%)"}]}]}
